Data on twelve compounds can be found in ChEMBL document CHEMBL5137100, “N-Alkyl-2-Quinolonopyrones Demonstrate Antimicrobial Activity against ESKAPE Pathogens Including Staphylococcus aureus” (2022).

In brackets after ≈: the same amount, converted by molar mass.

Type in all cases: functional
Common to all, as to conditions: time 18-20 hrs

Assay [1] relates to Staphylococcus aureus. The assay is described as follows: Antibacterial activity against methicillin-sensitive Staphylococcus aureus GP-001 ATCC 25923 assessed as reduction in bacterial growth in CAMHB incubated for 18 to 20 hrs by broth dilution method.
The test system of assay [2] is Staphylococcus aureus. As to the kind of experiment: Antibacterial activity against methicillin-resistant Staphylococcus aureus GP-020 ATCC 43300 assessed as reduction in bacterial growth in CAMHB incubated for 18 to 20 hrs by broth dilution method.
For assay [3], the system named is Staphylococcus aureus. As to the kind of experiment: Antibacterial activity against methicillin-resistant Staphylococcus aureus GP-021 ATCC 33591 assessed as reduction in bacterial growth in CAMHB incubated for 18 to 20 hrs by broth dilution method. In general terms: Dilution methods test growth across graded concentrations, often in twofold steps.
Assay [4] deals with Staphylococcus aureus. The assay is described as follows: Antibacterial activity against vancomycin intermediate and methicillin resistant Staphylococcus aureus GP-035 ATCC 700699 assessed as reduction in bacterial growth in CAMHB incubated for 18 to 20 hrs by broth dilution method.
The test system of assay [5] is Staphylococcus aureus. The assay is described as follows: Antibacterial activity against daptomycin and methicillin resistant Staphylococcus aureus GP-036 assessed as reduction in bacterial growth in CAMHB incubated for 18 to 20 hrs by broth dilution method.
For assay [6], the system named is Enterococcus sp. As to the kind of experiment: Antibacterial activity against Enterococcus sp. GP-024 ATCC 35667 assessed as reduction in bacterial growth in CAMHB incubated for 18 to 20 hrs by broth dilution method.
Assay [7] concerns Enterococcus sp. The assay is described as follows: Antibacterial activity against vancomycin resistant Enterococcus sp. GP-026 ATCC 700221 assessed as reduction in bacterial growth in CAMHB incubated for 18 to 20 hrs by broth dilution method.
Assay [8] relates to Staphylococcus epidermidis. As to the kind of experiment: Antibacterial activity against Staphylococcus epidermidis GP-017 ATCC 12228 assessed as reduction in bacterial growth in CAMHB incubated for 18 to 20 hrs by broth dilution method.
The subject of assay [9] is Staphylococcus epidermidis. The assay is described as follows: Antibacterial activity against Staphylococcus epidermidis GP-033 NRS 60 assessed as reduction in bacterial growth in CAMHB incubated for 18 to 20 hrs by broth dilution method.

Regarding `CCCCCCCn1c(=O)c2c(O)cc(=O)oc2c2cc(CCCCCC)ccc21`, the MIC80 (commonly an inhibitory concentration at the 80% level, which refers to growth in some studies and to a panel of isolates in others) in the assay with Staphylococcus aureus [1] was 256 µg/mL (≈ 622 µM); in the assay on Staphylococcus aureus [2] it was 256 µg/mL (≈ 622 µM); in the assay on Staphylococcus aureus [3] it was over 256 µg/mL.
On to `CCCCCCCCCn1c(=O)c2c(O)cc(=O)oc2c2ccccc21`, for which the MIC80 in the assay on Staphylococcus aureus [1] was 4 µg/mL (≈ 11.3 µM); in the assay with Staphylococcus aureus [2], 2 µg/mL (≈ 5.63 µM); in the assay with Staphylococcus aureus [3], 2 µg/mL (≈ 5.63 µM); with Staphylococcus aureus [4], 2 µg/mL (≈ 5.63 µM); in the assay on Staphylococcus aureus [5], 1 µg/mL (≈ 2.81 µM); with Enterococcus sp. [6], over 4 µg/mL. The MIC80 was 4 µg/mL (≈ 11.3 µM) in the assay on Enterococcus sp. [7], 2 µg/mL (≈ 5.63 µM) in [8] and 2 µg/mL (≈ 5.63 µM) in assay [9].
With `CCCCCCCn1c(=O)c2c(O)cc(=O)oc2c2cc(Cl)ccc21`, the MIC80 in the assay with Staphylococcus aureus [1] is 8 µg/mL (≈ 22.1 µM); in the assay with Staphylococcus aureus [2] it was 1 µg/mL (≈ 2.76 µM); with Staphylococcus aureus [3], over 128 µg/mL; in the assay on Staphylococcus aureus [4] it was 128 µg/mL (≈ 354 µM); in the assay with Staphylococcus aureus [5], 1 µg/mL (≈ 2.76 µM); in the assay with Enterococcus sp. [6], over 128 µg/mL. For the same compound, the values for the MIC80 (with Enterococcus sp. [7]; in assay [8]; in assay [9]) were 64 µg/mL (≈ 177 µM), 1 µg/mL (≈ 2.76 µM) and 8 µg/mL (≈ 22.1 µM), respectively.
On to `CCCCCCCn1c(=O)c2c(O)cc(=O)oc2c2cc(C)ccc21`, for which the MIC80 in the assay on Staphylococcus aureus [1] was over 128 µg/mL; in the assay on Staphylococcus aureus [2], 1 µg/mL (≈ 2.93 µM); in the assay with Staphylococcus aureus [3] it was 64 µg/mL (≈ 187 µM); with Staphylococcus aureus [4] it was over 128 µg/mL; in the assay with Staphylococcus aureus [5], over 128 µg/mL; in the assay with Enterococcus sp. [6] it was 128 µg/mL (≈ 375 µM). Also, the MIC80 with Enterococcus sp. [7] was 32 µg/mL (≈ 93.7 µM); in assay [8] it was 16 µg/mL (≈ 46.9 µM); in assay [9], over 64 µg/mL.
As to `CCCCCCCn1c(=O)c2c(O)cc(=O)oc2c2cc(F)ccc21`, the MIC80 with Staphylococcus aureus [1] is 8 µg/mL (≈ 23.2 µM); in the assay with Staphylococcus aureus [2] it was 2 µg/mL (≈ 5.79 µM); in the assay on Staphylococcus aureus [3], 4 µg/mL (≈ 11.6 µM); with Staphylococcus aureus [4], 4 µg/mL (≈ 11.6 µM); in the assay with Staphylococcus aureus [5] it was 2 µg/mL (≈ 5.79 µM); with Enterococcus sp. [6] it was over 64 µg/mL. In addition, the values for the MIC80 (in the assay on Enterococcus sp. [7]; in assay [8]; in assay [9]) were 32 µg/mL (≈ 92.7 µM), 4 µg/mL (≈ 11.6 µM) and 8 µg/mL (≈ 23.2 µM), respectively.
For the compound `CCCCCCCCCCn1c(=O)c2c(O)cc(=O)oc2c2ccccc21`, the MIC80 in the assay with Staphylococcus aureus [1] was over 64 µg/mL; with Staphylococcus aureus [2], 4 µg/mL (≈ 10.8 µM); with Staphylococcus aureus [3] it was over 64 µg/mL; in the assay on Staphylococcus aureus [4] it was over 64 µg/mL; in the assay with Staphylococcus aureus [5], over 64 µg/mL; with Enterococcus sp. [6], over 64 µg/mL. The MIC80 with Enterococcus sp. [7] is 0.5 µg/mL (≈ 1.35 µM); in assay [8] it was 4 µg/mL (≈ 10.8 µM); in assay [9], over 64 µg/mL.
Consider `CCCCCCCn1c(=O)c2c(O)cc(=O)oc2c2ccccc21`, for which the MIC80 in the assay on Staphylococcus aureus [1] was 8 µg/mL (≈ 24.4 µM); in the assay on Staphylococcus aureus [2], 4 µg/mL (≈ 12.2 µM); in the assay with Staphylococcus aureus [3], 8 µg/mL (≈ 24.4 µM); in the assay with Staphylococcus aureus [4], 8 µg/mL (≈ 24.4 µM); with Staphylococcus aureus [5], 4 µg/mL (≈ 12.2 µM); with Enterococcus sp. [6], over 128 µg/mL. For the same compound, the MIC80 was 16 µg/mL (≈ 48.9 µM) with Enterococcus sp. [7], 4 µg/mL (≈ 12.2 µM) in assay [8] and 4 µg/mL (≈ 12.2 µM) in [9].
With `CCCCCCCn1c(=O)c2c(O)cc(=O)oc2c2cc(OC)ccc21`, the MIC80 in the assay on Staphylococcus aureus [1] is 8 µg/mL (≈ 22.4 µM); in the assay on Staphylococcus aureus [2] it was at most 8 µg/mL; in the assay with Staphylococcus aureus [3] it was at most 8 µg/mL.
Take `CCCCCCCCn1c(=O)c2c(O)cc(=O)oc2c2ccccc21`: the MIC80 in the assay with Staphylococcus aureus [1] was 8 µg/mL (≈ 23.4 µM); in the assay on Staphylococcus aureus [2], 2 µg/mL (≈ 5.86 µM); in the assay with Staphylococcus aureus [3] it was 4 µg/mL (≈ 11.7 µM); with Staphylococcus aureus [4], 4 µg/mL (≈ 11.7 µM); in the assay on Staphylococcus aureus [5] it was 4 µg/mL (≈ 11.7 µM); in the assay on Enterococcus sp. [6], over 128 µg/mL. Besides, the figures for the MIC80 (in the assay with Enterococcus sp. [7]; in assay [8]; in [9]) were 1 µg/mL (≈ 2.93 µM), 4 µg/mL (≈ 11.7 µM) and 1 µg/mL (≈ 2.93 µM), respectively.
As for `CCCCCCCn1c(=O)c2c(O)cc(=O)oc2c2cc(C(C)(C)C)ccc21`, the MIC80 is 2 µg/mL (≈ 5.22 µM) in the assay with Staphylococcus aureus [1]; 1 µg/mL (≈ 2.61 µM) in the assay on Staphylococcus aureus [2]; 2 µg/mL (≈ 5.22 µM) in the assay on Staphylococcus aureus [3]; 1 µg/mL (≈ 2.61 µM) in the assay on Staphylococcus aureus [4]; 1 µg/mL (≈ 2.61 µM) in the assay with Staphylococcus aureus [5]; over 128 µg/mL in the assay on Enterococcus sp. [6]. Moreover, the MIC80 in the assay on Enterococcus sp. [7] came to 4 µg/mL (≈ 10.4 µM); in [8], 2 µg/mL (≈ 5.22 µM); in [9], 0.25 µg/mL (≈ 0.652 µM).
For `CCCCCCCn1c(=O)c2c(O)cc(=O)oc2c2c(C)cc(C)cc21`, the MIC80 in the assay on Staphylococcus aureus [1], with Staphylococcus aureus [2] and in the assay with Staphylococcus aureus [3] was over 256 µg/mL throughout.
Turning to `CCCCCCn1c(=O)c2c(O)cc(=O)oc2c2ccccc21`, the MIC80 with Staphylococcus aureus [1] is 16 µg/mL (≈ 51.1 µM); with Staphylococcus aureus [2], 8 µg/mL (≈ 25.5 µM); in the assay with Staphylococcus aureus [3], 16 µg/mL (≈ 51.1 µM); in the assay with Staphylococcus aureus [4], 8 µg/mL (≈ 25.5 µM); in the assay on Staphylococcus aureus [5] it was 8 µg/mL (≈ 25.5 µM); with Enterococcus sp. [6], over 64 µg/mL. Besides, the MIC80 with Enterococcus sp. [7] was found to be 8 µg/mL (≈ 25.5 µM); in [8], 8 µg/mL (≈ 25.5 µM); in assay [9] it was 2 µg/mL (≈ 6.38 µM).
